According to US20240240226A1, “FLUOROGENIC ASSAY FOR RAPID SCREENING OF BACTERIAL BETA-LACTAMASE ACTIVITY” (The Board of Trustees of the Leland Stanford Junior …, priority 2021, published 2024):
“And” between values parts separate entries of the source, which are not always exact repeats. Equal entries are not always repeated.

What was measured:
esterase = experiment: Response of CDA to H2O2 with esterases alone; format: biochemical
K. pneumoniae = experiment: Two-step filtration CDA/H2O2 urine assay, negative control K. pneumoniae; format: cell-based; conditions: K. pneumoniae without β-lactamase, concentrated from urine
Protocol: (§1) FIG. 4 illustrates the detection of lactam-resistant bacteria in urine samples. a) Illustration of the workflow in bacteria isolation and concentration from a urine sample for detection. The sample is first filtrated by a 5-μm filter to trap cells and large debris followed by a 0.22-μm filter to trap bacteria. The 0.22-μm filter is washed once before PBS/H2O2 (1 mM) is directed through the 0.22-μm filter in the opposite direction with a new syringe to recover the concentrated bacteria for detection in a plate reader. b) Longitudinal monitoring of fluorescence enhancement with CDA and concentrated E. coli, K. pneumoniae, K. pneumoniae/KPC, E. coli/TEM-1, E. coli/IMP-1, E. coli/KPC-3, E. cloacae/IMP, S. marcescens/SME, and E. coli/OXA-48 in the presence of H2O2 (1 mM). Star* indicate clinical isolates. The study was duplicated at room temperature with PBS as the buffer. The signal of CDA alone in PBS containing H2O2 (1 mM) was subtracted and the absolute values were plotted. The working concentration of CDA was 10 μM. Data were collected on a Tecan Safire microplate reader with excitation at 570 nm and emission at 600 nm. A.U. indicates arbitrary units. […]

[1] = test system: β-lactamases (TEM-1 Bla, AmpC, BlaC, IMP-1, OXA-48, KPC-3); experiment: Detection of recombinant β-lactamases by CDA with esterase and H2O2; format: biochemical; conditions: all β-lactamases; esterase 1 μg/mL, H2O2 1 mM, 2 hours, room temperature; 3x SD of negative controls
E. coli = experiment: Two-step filtration CDA/H2O2 urine assay, negative control E. coli; format: cell-based; conditions: E. coli without β-lactamase, concentrated from urine
Protocol: as §1

[2] = test system: β-lactamase producing bacteria; experiment: Two-step filtration CDA/H2O2 assay of bacteria in synthetic urine; format: cell-based, E. coli, K. pneumoniae, E. cloacae, S. marcescens; conditions: for bacteria concentration in urine detectable: two-step filtration, 250-fold enrichment, H2O2 1 mM
Protocol: FIG. 4 illustrates the detection of lactam-resistant bacteria in urine samples. a) Illustration of the workflow in bacteria isolation and concentration from a urine sample for detection. The sample is first filtrated by a 5-μm filter to trap cells and large debris followed by a 0.22-μm filter to trap bacteria. The 0.22-μm filter is washed once before PBS/H2O2 (1 mM) is directed through the 0.22-μm filter in the opposite direction with a new syringe to recover the concentrated bacteria for detection in a plate reader. b) Longitudinal monitoring of fluorescence enhancement with CDA and concentrated E. coli, K. pneumoniae, K. pneumoniae/KPC, E. coli/TEM-1, E. coli/IMP-1, E. coli/KPC-3, E. cloacae/IMP, S. marcescens/SME, and E. coli/OXA-48 in the presence of H2O2 (1 mM). Star* indicate clinical isolates. The study was duplicated at room temperature with PBS as the buffer. The signal of CDA alone in PBS containing H2O2 (1 mM) was subtracted and the absolute values were plotted. The working concentration of CDA was 10 μM. Data were collected on a Tecan Safire microplate reader with excitation at 570 nm and emission at 600 nm. A.U. indicates arbitrary units.
To develop an easy-to-use, point-of-care assay for screening cephalosporin and carbapenem resistance, a simple two-step filtration method was employed (FIG. 26) to prepare and concentrate pathogenic bacteria, similar to a procedure applied for improving culture-based AST previously (Avesar et al., Procs. Nat. Acad. Sci. U.S.A, 2017, 114, E5787-E5795). […] The 5-micron filter would trap particles including cells and large debris, and bacteria would be collected by the 0.22-micron filter and washed by PBS. A reverse elution with PBS containing 1 mM H2O2 allowed immediate high-throughput analysis by a plate reader in a 96-well plate precoated with CDA. […] 50 mL of synthetic urine spiked with bacteria could be concentrated to approximately 200 μL ready-to-use suspension within a few minutes; polypropylene filters recover bacteria more efficiently (>90%) than commonly used nylon filters (FIG. 27). […]

`CC(=O)Oc1ccc2c(c1)Oc1cc(OC(C)=O)ccc1N2C(=O)OCc1ccc(SCC2=C(C(=O)O)N3C(=O)[C@@H](NC(=O)Cc4ccccc4)[C@H]3SC2)cc1` [CDA, 3-(((4-(((3,7-diacetoxy-10H-phenoxazine-10-carbonyl)oxy)methyl)phenyl)thio)methyl)-8-oxo-7-(2-phenylacetamido)-5-thia-1-azabicyclo[4.2.0]oct-2-ene-2-carboxylic acid] was tested, and the “change of the response of CDA to H2O2” value (esterase) was “barely changed”, the “fluorescent signal of negative control” value (K. pneumoniae) was “almost undetectable” and the “limit of detection of β-lactamases” value [1] was 1 femtomole. The “fluorescent signal of negative control” value (E. coli) was “slightly increased signal”, the “fluorescent signal over time” value ([2]; all β-lactamase producing bacteria, after 250-fold enrichment) was “time dependent increase of fluorescent signal” and the “bacteria concentration in urine detectable” value ([2]; within 1 hour) was 10^5 c.f.u./mL. The “bacteria concentration in urine detectable” value ([2]; within 2 hours, room temperature) was 10^3 c.f.u./mL and 10^4 c.f.u./mL.
